Literature values in publication PMC3902791 (Molecular imaging and biology : MIB : the official …, 2012).
Where two headings read alike, the source gives them in different places.

Tests used:
[1] = humans; cited from earlier work
monkey = settings: intravenous injection; cited from earlier work
dog = settings: cited from earlier work

| Structure (SMILES) | effective dose [1] | radiation absorbed dose, intestines [1] | radiation absorbed dose, kidneys [1] | radiation absorbed dose, liver [1] | radiation absorbed dose, pancreas [1] | radiation absorbed dose, urinary bladder [1] | LD50 (monkey) | LD50 (dog; intravenously) | LD50 (dog; orally) |
| --- | --- | --- | --- | --- | --- | --- | --- | --- | --- |
| C[11C](=O)O [^11C-ACE, ^11C-labeled acetate] | 0.0049 mSv/MBq | 0.01–0.011 mGy/MBq | 0.0093 mGy/MBq | 0.006 mGy/MBq | 0.017 mGy/MBq | 0.0028 mGy/MBq |  |  |  |
| O=C([O-])CF.[Na+] [sodium fluoroacetate] |  |  |  |  |  |  | 5 mg/kg | 0.06 mg/kg | 0.066 mg/kg |
